According to patent publication US9708336B2, “Metallo-beta-lactamase inhibitors” (priority 2014, dated 2017):
Like-named read-outs stand apart in the source and are kept apart here.

Legend:
IMP-1 = IMP-1 (Serratia marcescens, UniProt P52699); assay: biochemical; assay type: biochemical; conditions: read-out: IMP-1 IC50
VIM-1 = VIM-1 (Pseudomonas aeruginosa (strain ATCC 15692 / DSM 22644 / CIP 104116 / JCM 14847 / LMG 12228 / 1C / PRS 101 / PAO1), UniProt A0A0F7KYQ8); assay: Enzyme activity: determination of IC50, fluorescence assay with CCF2-FA substrate (VIM-1); assay type: biochemical
Method: Enzyme Activity: Determination of IC50
The Class B enzyme activities were measured in the presence of the test inhibitor in a fluorescence assay against a commercially available substrate consisting of a cephalosporin core linking 7-hydroxycoumarin to fluorescein (CCF2-FA). The enzyme (NDM-1, IMP-1 or VIM-1) and the substrate were diluted in 100 mM KH2PO4 buffer (pH 7) containing 0.005% Tween-20 and 10 μM ZnSO4. […] The test inhibitor was dissolved in dimethylsulfoxide and diluted 1:50 in the assay, resulting in a final concentration range of 20 uM to 0.00063 uM. In a 384-well microplate, the test inhibitor was incubated with the metallo-β-lactamase enzyme and the substrate for 2 hours at 25° C. Fluorescence at 460 nm following excitation at 405 nm was measured. The IC50 value was determined from semi-logarithmic plots of enzyme inhibition versus inhibitor concentration, with a curve generated using a 4-parameter fit.

[1] = tested on: Escherichia coli expressing NDM-1 (CLB30005); assay: Antibiotic potentiation activity: synergistic concentration (MITC95) with imipenem, OD600 growth; assay type: cell-based; conditions: for Escherichia coli expressing NDM-1 (CLB 30005) MITC95: concentration giving 95% inhibition of bacterial growth; for Escherichia coli MITC95: Escherichia coli expressing NDM-1 (CLB30005), 95% growth inhibition
In short: (§1)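 CLB30005 was precultured on Mueller Hinton agar with 8 ug/ml imipenem, the other strains on trypticase soy agar with 5% sheep blood, overnight at 35 °C. Saline suspensions diluted 1:100 in 1.1× CAMHB received compound and 4 μg/ml imipenem, then 22–24 h at 35 °C before absorbance reading.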

[2] = tested on: Serratia marcescens expressing IMP-1 (CL5741); assay: as above; assay type: cell-based; conditions: for Serratia marcescens expressing IMP-1 (CL5741) MITC95: concentration giving 95% inhibition of bacterial growth; for Serratia marcescens MITC95: Serratia marcescens expressing IMP-1 (CL5741), 95% growth inhibition
In short: as §1

[3] = tested on: Klebsiella pneumoniae expressing VIM-1 (IHMA599644); assay: as above; assay type: cell-based; conditions: for Klebsiella pneumoniae expressing VIM-1 (IHMA 599644) MITC95: concentration giving 95% inhibition of bacterial growth; for Klebsiella pneumoniae MITC95: Klebsiella pneumoniae expressing VIM-1 (IHMA599644), 95% growth inhibition
In short: as §1

NDM-1 = NDM-1 (Klebsiella pneumoniae, UniProt C7C422); assay: biochemical; assay type: biochemical; conditions: read-out: NDM-1 IC50
[4] = fluorescence assay with CCF2-FA substrate
[5] = fluorescence assay with CCF2-FA substrate, read-out: VIM-1 IC50
[6] = IMP-1 enzyme, CCF2-FA fluorescence assay
[7] = VIM-1 enzyme, CCF2-FA fluorescence assay, read-out: VIM-1 IC50
[8] = NDM-1 enzyme, CCF2-FA fluorescence assay
[9] = VIM-1 IC50, VIM-1 enzyme, CCF2-FA fluorescence assay

IMP-1, sequence (P52699 whole entry, looked up): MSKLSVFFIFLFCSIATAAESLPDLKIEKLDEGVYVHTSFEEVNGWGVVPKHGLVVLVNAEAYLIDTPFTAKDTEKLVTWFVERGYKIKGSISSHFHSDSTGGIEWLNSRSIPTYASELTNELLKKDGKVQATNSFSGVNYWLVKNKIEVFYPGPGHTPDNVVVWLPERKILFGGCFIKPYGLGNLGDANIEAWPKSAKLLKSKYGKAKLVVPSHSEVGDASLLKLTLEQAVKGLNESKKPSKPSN
NDM-1, sequence (C7C422 whole entry, looked up, species assumed): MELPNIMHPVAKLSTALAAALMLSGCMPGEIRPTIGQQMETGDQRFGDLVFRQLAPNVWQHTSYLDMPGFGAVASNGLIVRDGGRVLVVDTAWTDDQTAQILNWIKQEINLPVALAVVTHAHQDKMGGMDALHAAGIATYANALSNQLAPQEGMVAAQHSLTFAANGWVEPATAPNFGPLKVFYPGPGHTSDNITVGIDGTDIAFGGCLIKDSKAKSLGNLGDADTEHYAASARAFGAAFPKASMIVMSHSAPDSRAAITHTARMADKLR

N#CC1CC=C(c2cccc(S(N)(=O)=O)c2-c2nn[nH]n2)CC1 (stereo not drawn) [Example 64, 3-(4-cyanocyclohex-1-en-1-yl)-2-(2H-tetrazol-5-yl)benzenesulfonamide]
IC50 (IMP-1; [4]): 0.248 µM
IC50 (VIM-1; [5]): 0.588 µM
Escherichia coli expressing NDM-1 (CLB 30005) MITC95 [1]: 1.953 µM
Serratia marcescens expressing IMP-1 (CL5741) MITC95 [2]: 50 µM
Klebsiella pneumoniae expressing VIM-1 (IHMA 599644) MITC95 [3]: 200 µM
IC50 (NDM-1; [4]): 0.0134 µM

Cc1ccc(-c2ccnc(S(N)(=O)=O)c2-c2nnn[nH]2)cc1 [Example 190, 3-(1H-Tetrazol-5-yl)-4-(p-tolyl)pyridine-2-sulfonamide]
IC50 (IMP-1; [4]): 3.15 µM
IC50 (VIM-1; [5]): 1.3 µM
Escherichia coli expressing NDM-1 (CLB 30005) MITC95 [1]: 10.42 µM
Serratia marcescens expressing IMP-1 (CL5741) MITC95 [2]: 100 µM
Klebsiella pneumoniae expressing VIM-1 (IHMA 599644) MITC95 [3]: >200 µM
IC50 (NDM-1; [4]): 0.232 µM

CN(C)S(=O)(=O)c1ccc(-c2cccc(S(N)(=O)=O)c2-c2nn[nH]n2)cc1 [Example 59, N~4~′,N~4~′-dimethyl-2-(2H-tetrazol-5-yl)biphenyl-3,4′-disulfonamide]
IC50 (IMP-1; [4]): 0.0361 µM
IC50 (VIM-1; [5]): 0.095 µM
Escherichia coli expressing NDM-1 (CLB 30005) MITC95 [1]: 2.344 µM
Serratia marcescens expressing IMP-1 (CL5741) MITC95 [2]: 6.25 µM
Klebsiella pneumoniae expressing VIM-1 (IHMA 599644) MITC95 [3]: 200 µM
IC50 (NDM-1; [4]): 0.00438 µM

NS(=O)(=O)c1cccc(-c2ccc(N3CCNCC3)nc2)c1-c1nn[nH]n1 [Example 324, 3-(6-(piperazin-1-yl)pyridin-3-yl)-2-(2H-tetrazol-5-yl)benzenesulfonamide]
IC50 (IMP-1; [6]): 1.02 µM
IC50 (VIM-1; [7]): 0.404 µM
Escherichia coli MITC95 [1]: 13.28 µM
Serratia marcescens MITC95 [2]: 32.81 µM
Klebsiella pneumoniae MITC95 [3]: 37.5 µM
IC50 (NDM-1; [8]): 0.105 µM

NS(=O)(=O)c1cccc(-c2ccc(C3(O)CNC3)cc2)c1-c1nn[nH]n1 [Example 315, 4′-(3-hydroxyazetidin-3-yl)-2-(2H-tetrazol-5-yl)-[1,1′-biphenyl]-3-sulfonamide]
IC50 (IMP-1; [6]): 0.51 µM
IC50 (VIM-1; [9]): 0.0334 µM
Escherichia coli MITC95 [1]: 0.3906 µM
Serratia marcescens MITC95 [2]: 4.688 µM
Klebsiella pneumoniae MITC95 [3]: 3.125 µM
IC50 (NDM-1; [8]): 0.0116 µM

N#Cc1ccc(-c2cccc(S(N)(=O)=O)c2-c2nnn[nH]2)cc1 [Example 308, 4′-cyano-2-(1H-tetrazol-5-yl)-[1,1′-biphenyl]-3-sulfonamide]
IC50 (IMP-1; [6]): 0.192 µM
IC50 (VIM-1; [9]): 0.164 µM
Escherichia coli MITC95 [1]: 2.344 µM
Serratia marcescens MITC95 [2]: 9.375 µM
Klebsiella pneumoniae MITC95 [3]: 75 µM
IC50 (NDM-1; [8]): 0.0113 µM

CNS(=O)(=O)c1ccc(-c2cccc(S(N)(=O)=O)c2-c2nn[nH]n2)cc1 [Example 57, N~4~-′-methyl-2-(2H-tetrazol-5-yl)biphenyl-3,4′-disulfonamide]
IC50 (IMP-1; [4]): 0.0289 µM
IC50 (VIM-1; [5]): 0.0297 µM
Escherichia coli expressing NDM-1 (CLB 30005) MITC95 [1]: 1.563 µM
Serratia marcescens expressing IMP-1 (CL5741) MITC95 [2]: 4.688 µM
Klebsiella pneumoniae expressing VIM-1 (IHMA 599644) MITC95 [3]: 25 µM
IC50 (NDM-1; [4]): 0.00419 µM

N#Cc1ccc2[nH]c(-c3cccc(S(N)(=O)=O)c3-c3nn[nH]n3)cc2c1 [Example 99, 3-(5-cyano-1H-indol-2-yl)-2-(2H-tetrazol-5-yl)benzenesulfonamide]
IC50 (IMP-1; [4]): 0.208 µM
IC50 (VIM-1; [5]): 0.104 µM
Escherichia coli expressing NDM-1 (CLB 30005) MITC95 [1]: 9.375 µM
Serratia marcescens expressing IMP-1 (CL5741) MITC95 [2]: 28.13 µM
Klebsiella pneumoniae expressing VIM-1 (IHMA 599644) MITC95 [3]: >200 µM
IC50 (NDM-1; [4]): 0.00698 µM

CONC(=O)c1ccc(-c2cccc(S(N)(=O)=O)c2-c2nn[nH]n2)cc1 [Example 88, N-methoxy-3′-sulfamoyl-2′-(2H-tetrazol-5-yl)biphenyl-4-carboxamide]
IC50 (IMP-1; [4]): 0.0873 µM
IC50 (VIM-1; [5]): 0.243 µM
Escherichia coli expressing NDM-1 (CLB 30005) MITC95 [1]: 1.953 µM
Serratia marcescens expressing IMP-1 (CL5741) MITC95 [2]: 12.5 µM
Klebsiella pneumoniae expressing VIM-1 (IHMA 599644) MITC95 [3]: 100 µM
IC50 (NDM-1; [4]): 0.00298 µM

NS(=O)(=O)c1cccc(-c2c[nH]c3nccnc23)c1-c1nn[nH]n1 [Example 104, 3-(5H-pyrrolo[2,3-b]pyrazin-7-yl)-2-(2H-tetrazol-5-yl)benzenesulfonamide]
IC50 (IMP-1; [4]): 0.287 µM
IC50 (VIM-1; [5]): 0.107 µM
Escherichia coli expressing NDM-1 (CLB 30005) MITC95 [1]: 0.9766 µM
Serratia marcescens expressing IMP-1 (CL5741) MITC95 [2]: 15.63 µM
Klebsiella pneumoniae expressing VIM-1 (IHMA 599644) MITC95 [3]: 25 µM
IC50 (NDM-1; [4]): 0.0168 µM

C[C@@H]1NC(=O)O[C@H]1c1ccc(-c2cccc(S(N)(=O)=O)c2-c2nnn[nH]2)cc1 [Example 29, 4′-[(4S,5S)-4-methyl-2-oxo-1,3-oxazolidin-5-yl]-2-(1H-tetrazol-5-yl)biphenyl-3-sulfonamide]
IC50 (IMP-1; [4]): 0.0121 µM
IC50 (VIM-1; [5]): 0.0528 µM
Escherichia coli expressing NDM-1 (CLB 30005) MITC95 [1]: 3.125 µM
Serratia marcescens expressing IMP-1 (CL5741) MITC95 [2]: 6.25 µM
Klebsiella pneumoniae expressing VIM-1 (IHMA 599644) MITC95 [3]: 200 µM
IC50 (NDM-1; [4]): 0.00149 µM

NC(=O)c1ccc(-c2cccc(S(N)(=O)=O)c2-c2nn[nH]n2)cc1 [Example 15, 3′-sulfamoyl-2′-(2H-tetrazol-5-yl)biphenyl-4-carboxamide]
IC50 (IMP-1; [4]): 0.134 µM
IC50 (VIM-1; [5]): 0.0623 µM
Escherichia coli expressing NDM-1 (CLB 30005) MITC95 [1]: 0.3906 µM
Serratia marcescens expressing IMP-1 (CL5741) MITC95 [2]: 15.63 µM
Klebsiella pneumoniae expressing VIM-1 (IHMA 599644) MITC95 [3]: 18.75 µM
IC50 (NDM-1; [4]): 0.00596 µM

COc1nc2cc(Cl)c(-c3cccc(S(N)(=O)=O)c3-c3nn[nH]n3)cc2[nH]1 [Example 279, 3-(5-chloro-2-methoxy-1H-benzo[d]imidazol-6-yl)-2-(2H-tetrazol-5-yl)benzenesulfonamide]
IC50 (IMP-1; [6]): 2.17 µM
IC50 (VIM-1; [9]): 0.183 µM
Escherichia coli MITC95 [1]: 0.5859 µM
Serratia marcescens MITC95 [2]: 25 µM
Klebsiella pneumoniae MITC95 [3]: 75 µM
IC50 (NDM-1; [8]): 0.0323 µM

NS(=O)(=O)c1cccc(-c2ccc(N3CCOCC3)nc2)c1-c1nn[nH]n1 [Example 323, 3-(6-morpholinopyridin-3-yl)-2-(2H-tetrazol-5-yl)benzenesulfonamide]
IC50 (IMP-1; [6]): 0.0706 µM
IC50 (VIM-1; [7]): 0.151 µM
Escherichia coli MITC95 [1]: 2.344 µM
Serratia marcescens MITC95 [2]: 12.5 µM
Klebsiella pneumoniae MITC95 [3]: 200 µM
IC50 (NDM-1; [8]): 0.00769 µM

NS(=O)(=O)c1cccc(-c2ccc(CO)nc2)c1-c1nnn[nH]1 [Example 258, 3-(6-(Hydroxymethyl)pyridin-3-yl)-2-(1H-tetrazol-5-yl)benzenesulfonamide]
IC50 (IMP-1; [6]): 0.888 µM
IC50 (VIM-1; [7]): 0.147 µM
Escherichia coli MITC95 [1]: 1.302 µM
Serratia marcescens MITC95 [2]: 37.5 µM
Klebsiella pneumoniae MITC95 [3]: 15.63 µM
IC50 (NDM-1; [8]): 0.0129 µM

NS(=O)(=O)c1ccnc(-c2ccc(CO)cc2)c1-c1nnn[nH]1 [Example 188, 2-(4-(Hydroxymethyl)phenyl)-3-(1H-tetrazol-5-yl)pyridine-4-sulfonamide]
IC50 (IMP-1; [4]): 0.768 µM
IC50 (VIM-1; [5]): 4.13 µM
Escherichia coli expressing NDM-1 (CLB 30005) MITC95 [1]: 2.344 µM
Serratia marcescens expressing IMP-1 (CL5741) MITC95 [2]: 37.5 µM
Klebsiella pneumoniae expressing VIM-1 (IHMA 599644) MITC95 [3]: >200 µM
IC50 (NDM-1; [4]): 0.0365 µM

NS(=O)(=O)c1cccc(-c2ccc3[nH]nnc3c2)c1-c1nn[nH]n1 [Example 74, 3-(1H-benzotriazol-5-yl)-2-(2H-tetrazol-5-yl)benzenesulfonamide]
IC50 (IMP-1; [4]): 1.61 µM
IC50 (VIM-1; VIM-1 IC50, fluorescence assay with CCF2-FA substrate): 0.475 µM
Escherichia coli expressing NDM-1 (CLB 30005) MITC95 [1]: 0.9766 µM
Serratia marcescens expressing IMP-1 (CL5741) MITC95 [2]: 18.75 µM
Klebsiella pneumoniae expressing VIM-1 (IHMA 599644) MITC95 [3]: 50 µM
IC50 (NDM-1; [4]): 0.0264 µM
